Data reported in ChEMBL document CHEMBL1124634, “Synthesis and antirhinovirus activity of 6-(dimethylamino)-2-(trifluoromethyl)-9-(substituted benzyl)-9H-purines” (J Med Chem, 1989).
Blank lines part the entries; values can stand above or below the compound they belong to.

Key:
Human rhinovirus sp. [1] = assay: Antiviral activity against rhinoviral-1B serotype in a plaque inhibition assay using monolayers of M-HeLa cells; type: functional, organism-based
Human rhinovirus sp. [2] = assay: Antiviral activity against rhinoviral 9 serotype in a plaque inhibition assay using monolayers of M-HeLa cells; type: functional, organism-based
Human rhinovirus sp. [3] = assay: Percent inhibitory activity at 8 uM against rhinoviral 21 serotype in a plaque inhibition assay using monolayers of M-HeLa cells; type: functional
Human rhinovirus sp. [4] = assay: Antiviral activity against rhinoviral 30 serotype in a plaque inhibition assay using monolayers of M-HeLa cells; type: functional, organism-based
Human rhinovirus sp. [5] = assay: Antiviral activity against rhinoviral-19 serotype in a plaque inhibition assay using monolayers of M-HeLa cells; type: functional, organism-based
Human rhinovirus sp. [6] = assay: Antiviral activity against rhinoviral 15 serotype in a plaque inhibition assay using monolayers of M-HeLa cells; type: functional, organism-based
Human rhinovirus sp. [7] = assay: Antiviral activity against rhinoviral 8 serotype in a plaque inhibition assay using monolayers of M-HeLa cells; type: functional, organism-based
Human rhinovirus sp. [8] = assay: Antiviral activity against rhinoviral 12 serotype in a plaque inhibition assay using monolayers of M-HeLa cells; type: functional, organism-based
Human rhinovirus sp. [9] = assay: Antiviral activity against rhinoviral 31 serotype in a plaque inhibition assay using monolayers of M-HeLa cells; type: functional, organism-based
Human rhinovirus sp. [10] = assay: Antiviral activity against rhinoviral 5 serotype in a plaque inhibition assay using monolayers of M-HeLa cells; type: functional, organism-based
Human rhinovirus sp. [11] = assay: Antiviral activity against rhinoviral 14 serotype in a plaque inhibition assay using monolayers of M-HeLa cells; type: functional, organism-based
Human rhinovirus sp. [12] = assay: Antiviral activity against rhinoviral 29 serotype in a plaque inhibition assay using monolayers of M-HeLa cells; type: functional, organism-based
Human rhinovirus sp. [13] = assay: Antiviral activity against rhinoviral 4 serotype in a plaque inhibition assay using monolayers of M-HeLa cells; type: functional, organism-based
Human rhinovirus sp. [14] = assay: Percent inhibitory activity at 8 uM against rhinoviral 13 serotype in a plaque inhibition assay using monolayers of M-HeLa cells; type: functional
Human rhinovirus sp. [15] = assay: Antiviral activity against rhinoviral-18 serotype in a plaque inhibition assay using monolayers of M-HeLa cells; type: functional, organism-based
Human rhinovirus sp. [16] = assay: Antiviral activity against rhinoviral 2 serotype in a plaque inhibition assay using monolayers of M-HeLa cells; type: functional, organism-based
Human rhinovirus sp. [17] = assay: Antiviral activity against rhinoviral 16 serotype in a plaque inhibition assay using monolayers of M-HeLa cells; type: functional, organism-based
Human rhinovirus sp. [18] = assay: Antiviral activity against rhinoviral-1A serotype in a plaque inhibition assay using monolayers of M-HeLa cells; type: functional, organism-based
Human rhinovirus sp. [19] = assay: Percent inhibitory activity at 8 uM against rhinoviral 3 serotype in a plaque inhibition assay using monolayers of M-HeLa cells; type: functional
Human rhinovirus sp. [20] = assay: Percent inhibitory activity at 8 uM against rhinoviral 29 serotype in a plaque inhibition assay using monolayers of M-HeLa cells; type: functional
Human rhinovirus sp. [21] = assay: Percent inhibitory activity at 8 uM against rhinoviral 15 serotype in a plaque inhibition assay using monolayers of M-HeLa cells; type: functional
Human rhinovirus sp. [22] = assay: Percent inhibitory activity at 8 uM against rhinoviral 19s erotype in a plaque inhibition assay using monolayers of M-HeLa cells; type: functional
Human rhinovirus sp. [23] = assay: Percent inhibitory activity at 8 uM against rhinoviral 30 serotype in a plaque inhibition assay using monolayers of M-HeLa cells; type: functional
Human rhinovirus sp. [24] = assay: Antiviral activity against rhinoviral 19 serotype in a plaque inhibition assay using monolayers of M-HeLa cells; type: functional, organism-based
Human rhinovirus sp. [25] = assay: Antiviral activity against rhinoviral 18 serotype in a plaque inhibition assay using monolayers of M-HeLa cells; type: functional, organism-based
Human rhinovirus sp. [26] = assay: Percent inhibitory activity at 8 uM against rhinoviral 31 serotype in a plaque inhibition assay using monolayers of M-HeLa cells; type: functional
Human rhinovirus sp. [27] = assay: Percent inhibitory activity at 8 uM against rhinoviral 5 serotype in a plaque inhibition assay using monolayers of M-HeLa cells; type: functional
Human rhinovirus sp. [28] = assay: Antiviral activity against rhinoviral 3 serotype in a plaque inhibition assay using monolayers of M-HeLa cells; type: functional, organism-based

- IC50 (Human rhinovirus sp. [1]): 1.7 µM
Compound: CN(C)c1nc(C(F)(F)F)nc2c1ncn2Cc1ccccc1N

- IC50 (Human rhinovirus sp. [1]): > 1 µM
Compound: COc1cc(Cn2cnc3c(N(C)C)nc(C(F)(F)F)nc32)ccc1C

- IC50 (Human rhinovirus sp. [1]): 5.6 µM
Compound: COc1ccccc1Cn1cnc2c(N(C)C)nc(C(F)(F)F)nc21

- IC50 (Human rhinovirus sp. [2]): 0.71 µM
- IC50 (Human rhinovirus sp. [4]): 7.5 µM
- IC50 (Human rhinovirus sp. [5]): 5.4 µM
- IC50 (Human rhinovirus sp. [6]): 3.7 µM
- IC50 (Human rhinovirus sp. [1]): 0.12 µM
- IC50 (Human rhinovirus sp. [7]): 11 µM
- IC50 (Human rhinovirus sp. [8]): 5.1 µM
- IC50 (Human rhinovirus sp. [9]): 13 µM
- IC50 (Human rhinovirus sp. [10]): > 8 µM
- IC50 (Human rhinovirus sp. [11]): 10 µM
- IC50 (Human rhinovirus sp. [12]): 4.8 µM
- IC50 (Human rhinovirus sp. [13]): 8.4 µM
- IC50 (Human rhinovirus sp. [15]): 8.1 µM
- IC50 (Human rhinovirus sp. [16]): 6.1 µM
- IC50 (Human rhinovirus sp. [17]): 0.74 µM
- IC50 (Human rhinovirus sp. [18]): 0.73 µM
Compound: CN(C)c1nc(C(F)(F)F)nc2c1ncn2Cc1ccc(Cl)c(Cl)c1
- Inhibition (Human rhinovirus sp. [3]): 29%
- Inhibition (Human rhinovirus sp. [14]): 23%
- Inhibition (Human rhinovirus sp. [19]): 40%

- IC50 (Human rhinovirus sp. [1]): 0.15 µM
Compound: CN(C)c1nc(C(F)(F)F)nc2c1ncn2Cc1ccccc1F

- IC50 (Human rhinovirus sp. [1]): > 1.3 µM
Compound: Cc1cc(C)cc(Cn2cnc3c(N(C)C)nc(C(F)(F)F)nc32)c1

- IC50 (Human rhinovirus sp. [2]): 0.95 µM
- IC50 (Human rhinovirus sp. [1]): 0.11 µM
- IC50 (Human rhinovirus sp. [7]): > 8 µM
- IC50 (Human rhinovirus sp. [8]): 7.2 µM
- IC50 (Human rhinovirus sp. [9]): 13 µM
- IC50 (Human rhinovirus sp. [10]): > 8 µM
- IC50 (Human rhinovirus sp. [11]): 11 µM
- IC50 (Human rhinovirus sp. [13]): 7.6 µM
- IC50 (Human rhinovirus sp. [15]): 6.1 µM
- IC50 (Human rhinovirus sp. [16]): 2.8 µM
- IC50 (Human rhinovirus sp. [17]): 1.2 µM
- IC50 (Human rhinovirus sp. [18]): 0.83 µM
Compound: Cc1ccc(Cn2cnc3c(N(C)C)nc(C(F)(F)F)nc32)c(C)c1
- Inhibition (Human rhinovirus sp. [20]): 20%
- Inhibition (Human rhinovirus sp. [21]): 30%
- Inhibition (Human rhinovirus sp. [3]): 16%
- Inhibition (Human rhinovirus sp. [22]): 36%
- Inhibition (Human rhinovirus sp. [23]): 33%
- Inhibition (Human rhinovirus sp. [14]): 13%
- Inhibition (Human rhinovirus sp. [19]): 40%

- IC50 (Human rhinovirus sp. [1]): 180 µM
Compound: CN(C)c1cc(Cl)ccc1Cn1cnc2c(N(C)C)nc(C(F)(F)F)nc21

- IC50 (Human rhinovirus sp. [1]): 0.47 µM
Compound: CN(C)c1nc(C(F)(F)F)nc2c1ncn2Cc1ccc(Cl)cc1N

- IC50 (Human rhinovirus sp. [1]): > 0.2 µM
Compound: CN(C)c1cc(Cn2cnc3c(N(C)C)nc(C(F)(F)F)nc32)ccc1Cl

- IC50 (Human rhinovirus sp. [2]): 1.9 µM
- IC50 (Human rhinovirus sp. [1]): 0.2 µM
- IC50 (Human rhinovirus sp. [7]): 7.9 µM
- IC50 (Human rhinovirus sp. [8]): 8.1 µM
- IC50 (Human rhinovirus sp. [11]): 8 µM
- IC50 (Human rhinovirus sp. [12]): 4.2 µM
- IC50 (Human rhinovirus sp. [13]): 10 µM
- IC50 (Human rhinovirus sp. [28]): 9 µM
- IC50 (Human rhinovirus sp. [15]): 13 µM
- IC50 (Human rhinovirus sp. [16]): 9.4 µM
- IC50 (Human rhinovirus sp. [17]): 4.3 µM
- IC50 (Human rhinovirus sp. [18]): 4 µM
Compound: CN(C)c1nc(C(F)(F)F)nc2c1ncn2Cc1ccccc1Cl
- Inhibition (Human rhinovirus sp. [26]): 38%
- Inhibition (Human rhinovirus sp. [21]): 30%
- Inhibition (Human rhinovirus sp. [3]): 38%
- Inhibition (Human rhinovirus sp. [22]): 27%
- Inhibition (Human rhinovirus sp. [27]): 24%
- Inhibition (Human rhinovirus sp. [23]): 31%
- Inhibition (Human rhinovirus sp. [14]): 24%

The next lines start with the compound.

Compound: CN(C)c1nc(C(F)(F)F)nc2c1ncn2Cc1ccc(Cl)c([N+](=O)[O-])c1
- IC50 (Human rhinovirus sp. [1]): 2.1 µM

Compound: CN(C)c1nc(C(F)(F)F)nc2c1ncn2Cc1ccc(C#N)cc1
- IC50 (Human rhinovirus sp. [1]): 0.3 µM

Compound: CN(C)c1nc(C(F)(F)F)nc2c1ncn2Cc1ccc(CN)cc1
- IC50 (Human rhinovirus sp. [1]): 0.2 µM

Compound: CN(C)c1nc(C(F)(F)F)nc2c1ncn2Cc1cccc(Br)c1
- IC50 (Human rhinovirus sp. [1]): 0.06 µM

Compound: CN(C)c1nc(C(F)(F)F)nc2c1ncn2Cc1cccc(NC=O)c1
- IC50 (Human rhinovirus sp. [1]): 0.74 µM

Compound: CCCCc1ccc(Cn2cnc3c(N(C)C)nc(C(F)(F)F)nc32)cc1
- IC50 (Human rhinovirus sp. [1]): 0.78 µM

Compound: CN(C)c1nc(C(F)(F)F)nc2c1ncn2Cc1ccc(OCc2ccccc2)cc1
- IC50 (Human rhinovirus sp. [1]): 4.4 µM

Compound: CSc1ccc(Cn2cnc3c(N(C)C)nc(C(F)(F)F)nc32)cc1
- IC50 (Human rhinovirus sp. [2]): 1 µM
- IC50 (Human rhinovirus sp. [24]): 2.5 µM
- Inhibition (Human rhinovirus sp. [3]): 35%
- IC50 (Human rhinovirus sp. [4]): 7.9 µM
- IC50 (Human rhinovirus sp. [6]): 4.5 µM
- IC50 (Human rhinovirus sp. [1]): 0.07 µM
- IC50 (Human rhinovirus sp. [7]): 7.2 µM
- IC50 (Human rhinovirus sp. [8]): 5.2 µM
- IC50 (Human rhinovirus sp. [9]): 8.6 µM
- IC50 (Human rhinovirus sp. [10]): > 8 µM
- IC50 (Human rhinovirus sp. [11]): 7.6 µM
- IC50 (Human rhinovirus sp. [25]): 10 µM
- IC50 (Human rhinovirus sp. [12]): 2.6 µM
- IC50 (Human rhinovirus sp. [13]): 3.8 µM
- Inhibition (Human rhinovirus sp. [14]): 35%
- IC50 (Human rhinovirus sp. [16]): 4.5 µM
- IC50 (Human rhinovirus sp. [17]): 0.81 µM
- IC50 (Human rhinovirus sp. [18]): 0.57 µM
- Inhibition (Human rhinovirus sp. [19]): 39%

Compound: CN(C)c1nc(C(F)(F)F)nc2c1ncn2Cc1ccc(-c2ccccc2)cc1
- IC50 (Human rhinovirus sp. [1]): 14 µM

Compound: COc1cc(Cn2cnc3c(N(C)C)nc(C(F)(F)F)nc32)ccc1Cl
- IC50 (Human rhinovirus sp. [1]): 0.68 µM

Compound: CN(C)c1nc(C(F)(F)F)nc2c1ncn2Cc1cccc(O)c1
- IC50 (Human rhinovirus sp. [1]): 0.95 µM

Compound: CN(C)c1nc(C(F)(F)F)nc2c1ncn2Cc1ccc(NC=O)cc1
- IC50 (Human rhinovirus sp. [1]): 0.18 µM
